Measurements reported in patent US6710086B1, “Protected forms of pharmacologically active agents and uses therefor” (Medinox, Inc., priority 2000, dated 2004).

System: adjuvant-induced arthritis
Details: high doses: naproxen 10 mg/kg, conjugate 18 mg/kg, oral daily on days 5-8 and 11-14; day 15

COc1ccc2cc([C@H](C)C(=O)O)ccc2c1 [Naproxen, (S)-(+)-methoxy-α-methyl-2-naphthaleneacetic acid]
Reduction of swelling compared to control: approximately 70%
